{"source": "patent US7709223B2", "about": "“Method for detecting bacteria with chromogenic substrates for β-D-ribofuranosidase” (priority 2001, dated 2010)", "key": {"E. aerogenes": {"tested_on": "E. aerogenes", "assay": "Hydrolysis on Columbia agar with ferric ammonium citrate", "assay_type": "cell-based", "conditions": "E. aerogenes; weaker reaction", "procedure": "(§1) The chromogenic β-D-ribofuranoside substrate was added to Columbia agar at a substrate concentration of 300 mg/l. Ferric ammonium citrate was included at 500 mg/l. All ingredients were autoclaved at 116° C. for 20 minutes to ensure sterilisation. Agar plates were then prepared in 90 mm petri dishes. The substrate caused a yellow colouration of the agar.\n(§2) For each strain tested, a bacterial suspension was prepared in sterile deionised water at an inoculum of approximately 1.5×10^8 colony forming units per ml. This was achieved using a densitometer. 1 μl of each bacterial suspension was then inoculated onto each plate using a multipoint inoculator. Strains were inoculated in parallel onto Columbia agar containing ferric ammonium citrate with no substrate (negative control).\n(§3) After 18 hours incubation, strains were examined visually for the presence of colour. Any strains producing a black colouration on substrate containing media but not on the negative control plates were deemed to be hydrolysing the substrate."}, "E. coli [1]": {"tested_on": "E. coli", "assay": "Hydrolysis on Columbia agar with ferric ammonium citrate", "assay_type": "cell-based", "conditions": "E. coli; weaker reaction", "procedure": "as §1, §2, §3"}, "K. pneumoniae": {"tested_on": "K. pneumoniae", "assay": "Hydrolysis on Columbia agar with ferric ammonium citrate", "assay_type": "cell-based", "conditions": "K. pneumoniae", "procedure": "as §1, §2, §3"}, "Shigella sonnei": {"tested_on": "Shigella sonnei", "assay": "Hydrolysis on Columbia agar with ferric ammonium citrate", "assay_type": "cell-based", "conditions": "S. sonnei", "procedure": "as §1, §2, §3"}, "[2]": {"tested_on": "β-D-ribofuranosidase negative strains", "assay": "Further substrates on agar plates, colony appearance", "assay_type": "cell-based", "procedure": "as §1, §2, §3\n(§4) The same evaluation method as described above in Example 2 was utilised."}, "AMP nucleosidase": {"target": "AMP nucleosidase (Escherichia coli, UniProt P0AE12)", "sequence (P0AE12 whole entry)": "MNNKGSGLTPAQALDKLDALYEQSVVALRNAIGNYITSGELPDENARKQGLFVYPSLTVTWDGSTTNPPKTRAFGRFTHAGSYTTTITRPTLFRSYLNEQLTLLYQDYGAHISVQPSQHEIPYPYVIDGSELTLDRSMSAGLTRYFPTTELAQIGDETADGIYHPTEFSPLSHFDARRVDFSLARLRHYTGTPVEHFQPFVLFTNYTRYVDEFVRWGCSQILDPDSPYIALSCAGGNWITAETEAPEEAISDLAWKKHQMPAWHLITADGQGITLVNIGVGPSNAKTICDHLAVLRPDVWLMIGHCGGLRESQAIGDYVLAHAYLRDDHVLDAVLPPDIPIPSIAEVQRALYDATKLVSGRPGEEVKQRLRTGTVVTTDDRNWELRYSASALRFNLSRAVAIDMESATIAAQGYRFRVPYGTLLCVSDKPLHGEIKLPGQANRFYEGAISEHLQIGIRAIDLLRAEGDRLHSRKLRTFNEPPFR", "conditions": "N-ribohydrolase from E. coli, AMP nucleosidase (Schramm et al, WO97/31008); cited from earlier work"}, "E. coli [3]": {"tested_on": "E. coli", "assay": "Aluminium salt-containing medium with mixed culture", "assay_type": "cell-based", "conditions": "mixed culture of E. coli and Yersinia enterocolitica", "procedure": "(§5) The substrate was evaluated using the general method of example 2 but using a range of different metal salts and a culture of E. coli alone. The metal salts shown in Table 5, below, were used at a concentration of 500 mg/l.\n(§6) When the aluminium salt-containing medium was used with a mixed culture of E. coli and Yersinia enterocolitica, the E. coli colonies were bright yellow and stood out very clearly."}, "Yersinia enterocolitica": {"tested_on": "Yersinia enterocolitica", "assay": "Aluminium salt-containing medium with mixed culture", "assay_type": "cell-based", "conditions": "mixed culture of E. coli and Yersinia enterocolitica", "procedure": "as §5, §6"}, "[4]": {"tested_on": "β-D-ribofuranosidase positive strains", "assay": "Further substrates on agar plates, colony appearance", "assay_type": "cell-based", "procedure": "as §1, §2, §3, §4"}, "E. coli [5]": {"tested_on": "E. coli", "assay": "Evaluation with metal salts forming chelates, colour of colonies", "assay_type": "cell-based", "procedure": "as §1, §2, §3, §5"}}, "note": "Structures can show the parent of a compound that is named as a salt.", "data": [{"molecule": "O=Cc1ccc(OC2OC(CO)C(O)C2O)c(O)c1", "note": "[Example 1.4, 3,4-Dihydroxybenzaldehyde-4β-D-ribofuranoside sodium salt]", "values": [{"measurement": "Colony appearance", "setting": "E. aerogenes", "result": "paler colonies"}, {"measurement": "Colony appearance", "setting": "E. coli [1]", "result": "paler colonies"}, {"measurement": "Colony appearance", "setting": "K. pneumoniae", "result": "Dark brown colonies"}, {"measurement": "Colony appearance", "setting": "Shigella sonnei", "result": "Dark brown colonies"}, {"measurement": "Colony appearance", "setting": "[2]", "result": "cream colonies"}]}, {"molecule": "O=[N+]([O-])c1ccc(O[C@@H]2O[C@H](COP(=O)(O)O)[C@@H](O)[C@H]2O)cc1", "note": "[p-Nitrophenyl β-D-ribofuranoside-5-phosphate]", "values": [{"measurement": "Activity as substrate", "setting": "AMP nucleosidase", "result": "inactive"}]}, {"molecule": "COc1c(-c2ccc(O[C@@H]3O[C@H](CO)[C@@H](O)[C@H]3O)c(O)c2)oc2ccccc2c1=O", "values": [{"measurement": "Colour of E. coli colonies", "setting": "E. coli [3]", "result": "bright yellow"}, {"measurement": "Colour of Y. enterocolitica colonies", "setting": "Yersinia enterocolitica", "result": "colourless"}]}, {"molecule": "O=C1/C(=C/c2ccc(OC3OC(CO)C(O)C3O)c(O)c2)Oc2ccccc21", "note": "[Example 1.7, 3′,4′-Dihydroxyaurone-4′-β-D-ribofuranoside]", "values": [{"measurement": "Colony appearance", "setting": "[4]", "result": "pale brown colonies"}]}, {"molecule": "COc1c(-c2ccc(O[C@@H]3O[C@H](CO)[C@@H](O)[C@H]3O)c(O)c2)oc2ccccc2c1=O", "note": "[Example 6, 3′4′-dihydroxy-3-methoxy-flavone-4′-β-D-ribofuranoside]", "values": [{"measurement": "Colour of colonies", "setting": "E. coli [5]; No metal", "result": "Diffuse yellow"}, {"measurement": "Colour of colonies", "setting": "E. coli [5]; metal salt Al 500 mg/l", "result": "Yellow"}, {"measurement": "Colour of colonies", "setting": "E. coli [5]; metal salt Ba 500 mg/l", "result": "Yellow"}, {"measurement": "Colour of colonies", "setting": "E. coli [5]; metal salt Bi 500 mg/l", "result": "Rusty orange"}, {"measurement": "Colour of colonies", "setting": "E. coli [5]; metal salt Co 500 mg/l", "result": "No growth"}, {"measurement": "Colour of colonies", "setting": "E. coli [5]; metal salt Fe 500 mg/l", "result": "Brown"}, {"measurement": "Colour of colonies", "setting": "E. coli [5]; metal salt Mn 500 mg/l", "result": "Pale orange"}, {"measurement": "Colour of colonies", "setting": "E. coli [5]; metal salt Sn 500 mg/l", "result": "Yellow"}, {"measurement": "Colour of colonies", "setting": "E. coli [5]; metal salt Sr 500 mg/l", "result": "Yellow"}, {"measurement": "Colour of colonies", "setting": "E. coli [5]; metal salt Zn 500 mg/l", "result": "No growth"}]}, {"molecule": "3,4-Dihydroxybenzaldehydesemicarbazone-4-β-D-ribofuranoside [Example 1.5]", "values": [{"measurement": "Colony appearance", "setting": "[2]", "result": "cream colonies"}, {"measurement": "Colony appearance", "setting": "[4]", "result": "diffuse brown colonies"}]}]}
